The values that follow come from patent US7556930B2, “CD39L3 and its role in diabetes” (Metabolex Inc., priority 2005, dated 2009).

Molecules are shown by their SMILES. pIC50: −log10 of the molar value. Where two headings read alike, the source gives them in different places.

The target of test [1] is T1, full length human CD39L3 (Homo sapiens, UniProt O75355, A496V).
T1 construct: Cells were transiently transfected with the full length human CD39L3 clone; expressed in transfected cells; host or cells: HEK293 cells, transiently transfected; frozen and thawed intact cells
T1 sequence (O75355 1-529 A496V): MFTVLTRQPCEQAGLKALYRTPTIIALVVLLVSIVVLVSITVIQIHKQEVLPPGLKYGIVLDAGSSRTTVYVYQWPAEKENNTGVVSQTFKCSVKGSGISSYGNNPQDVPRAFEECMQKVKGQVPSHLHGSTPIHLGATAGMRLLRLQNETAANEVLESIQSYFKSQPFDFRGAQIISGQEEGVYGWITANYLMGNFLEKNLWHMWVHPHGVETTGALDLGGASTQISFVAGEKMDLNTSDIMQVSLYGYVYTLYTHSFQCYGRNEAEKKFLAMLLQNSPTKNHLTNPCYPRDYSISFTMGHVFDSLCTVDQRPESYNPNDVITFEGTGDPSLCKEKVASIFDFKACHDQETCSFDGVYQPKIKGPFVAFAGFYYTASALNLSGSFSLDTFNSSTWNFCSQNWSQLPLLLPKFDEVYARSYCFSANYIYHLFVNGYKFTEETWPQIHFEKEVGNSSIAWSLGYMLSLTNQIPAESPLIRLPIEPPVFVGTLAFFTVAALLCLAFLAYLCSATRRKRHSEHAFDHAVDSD
As to the kind of experiment: Piper Phosphate Assay of CD39L3 nucleotide hydrolysis activity in transiently transfected HEK293 cells. The format is biochemical. How it is done: (§1) FIG. 4 illustrates the Km of ATP determined for full length human CD39L3 in transiently transfected HEK293 cells. The Km of ATP values determined under two concentrations of each cation source: CaCl2 and MgCl2. […] Activity assays were performed with the Piper Phosphate Assay (Molecular Probes).
(§2) FIG. 5 illustrates the Km of ADP determined for full length human CD39L3 in transiently transfected HEK293 cells. The Km of ADP values determined under two concentrations of each cation source: CaCl2 and MgCl2. […] Activity assays were performed with the Piper Phosphate Assay (Invitrogen).
(§3) FIG. 6 illustrates the inhibition of CD39L3 examined with the general ectoATPase inhibitor, ARL 67156. HEK293 cells were transiently transfected with full length human CD39L3. […] Activity assays were performed with the Piper Phosphate Assay (Molecular Probes).
(§4) As the activity of CD39L3 involves the hydrolysis of nucleoside triphosphates and diphosphates, Molecular Probes' Piper Phosphate Assay Kit™, which is an assay that detects free phosphate, a product of the hydrolysis, was used.
(§5) Cells were transiently transfected with the full length human CD39L3 clone were measured for nucleotide hydrolysis activity in suspension or adhered to the plate, within an isotonic buffer including the required cation cofactor, calcium or magnesium. Batches of transiently transfected CD39L3 cells were produced and frozen until use.
(§6) Using cells that were frozen and thawed, the Piper Phosphate Assay was used to determine the Km of ATP and ADP for the full length human CD39L3 clone (FIGS. 4 and 5). In addition, to validate the detection of an inhibitor with this assay format, a general ectoATPase inhibitor, ARL 67156, was examined.

For test [2], the target named is T2, full length human CD39L3 (Homo sapiens, UniProt O75355).
T2 construct: Cells were transiently transfected with the full length human CD39L3 clone; expressed in transfected cells; host or cells: HEK293 cells, transiently transfected; frozen and thawed intact cells
T2 sequence (O75355 1-529 A496V): T1 sequence (O75355 1-529 A496V)
The test is described as above. The format is biochemical. The conditions noted are these: HEK293 cells transiently transfected with full length human CD39L3, read-out: IC50, inhibition of CD39L3. How it is done:
as §1, §2, §3, §4, §5, §6

As usually defined, the Km is the concentration of substrate that gives half-maximal velocity. Regarding `Nc1ncnc2c1ncn2[C@@H]1O[C@H](COP(=O)(O)OP(=O)(O)O)[C@@H](O)[C@H]1O` [ADP], the Km on full length human CD39L3 [1] (1 mM CaCl2, read-out: Km of ADP) was 42 µM; on full length human CD39L3 [1] (1 mM MgCl2, read-out: Km of ADP), 35 µM; at full length human CD39L3 [1] (5 mM CaCl2, read-out: Km of ADP), 39 µM; at full length human CD39L3 [1] (5 mM MgCl2, read-out: Km of ADP), 44 µM.
With `Nc1ncnc2c1ncn2[C@@H]1O[C@H](COP(=O)(O)OP(=O)(O)OP(=O)(O)O)[C@@H](O)[C@H]1O` [ATP], the Michaelis constant (Km) was 105 µM at full length human CD39L3 [1] (1 mM CaCl2, read-out: Km of ATP); 60 µM at full length human CD39L3 [1] (1 mM MgCl2, read-out: Km of ATP); 85 µM at full length human CD39L3 [1] (5 mM CaCl2, read-out: Km of ATP); 52 µM at full length human CD39L3 [1] (5 mM MgCl2, read-out: Km of ATP).
For orientation: pIC50 means the IC50 on a negative log10 scale, so that one unit is a factor of ten. As to `CCN(CC)c1ncnc2c1ncn2[C@@H]1O[C@H](COP(=O)(O)OP(=O)(O)C(Br)(Br)P(=O)(O)O)[C@@H](O)[C@H]1O` [ARL 67156], the pIC50 on full length human CD39L3 [2] (40 uM ADP+5 mM CaCl2) was 4.23; at full length human CD39L3 [2] (40 uM ADP+5 mM MgCl2), 4.24; at full length human CD39L3 [2] (65 μM ATP+5 mM CaCl2), 4.31; at full length human CD39L3 [2] (65 uM ATP+5 mM MgCl2), 4.23.
